22 compounds from US10544130B2, “Metallo-beta-lactamase inhibitors” (priority 2015, dated 2020) can be followed below.

Data set [1] concerns Serratia marcescens expressing IMP-1 (CL5741). It is filed as cell-based. To be noted: with imipenem 1 μg/ml, 95% inhibition of bacterial growth. The procedure, abridged:
(§1)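 Clinical strains were grown overnight at 35 °C on blood agar, adjusted to set OD600 in saline and diluted 1:100 into 1.1× CAMHB. Inhibitor was tested with and without imipenem at 1 μg/ml. After 22–24 h at 35 °C, absorbance was read to give synergistic concentration.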

Data set [2] has as its system Escherichia coli expressing NDM-1 (CLB30005, CLB30016). In kind it is cell-based. To be noted: with imipenem 1 μg/ml, 95% inhibition of bacterial growth. The procedure, abridged:
as §1

Data set [3] concerns Pseudomonas aeruginosa PAO1 MB9798 (efflux+, IMP-1). To be noted: ratio MITC95 PA 9798/MITC95 PA 9799; imipenem at 2 μg/mL. The procedure, abridged:
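Isogenic PAO1 pair (efflux+ MB9798, efflux− MB9799, both IMP-1) tested by microbroth MIC with fixed imipenem and/or ceftazidime, usually at CLSI breakpoint, plus fixed class A/C inhibitor against AmpC. MBL inhibitor titrated; concentration restoring susceptibility recorded and fold difference between strains taken as efflux extent.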

Where a name gives a salt, the structure may show the parent alone. Read-outs that look alike come from different tables or passages of the source.

Take `Nc1nc2c(-c3ccc(S(=O)(=O)NCC4(O)CNC4)c(S(N)(=O)=O)c3-c3nn[nH]n3)cccc2s1` [Example 387, 4-(2-amino-1,3-benzothiazol-4-yl)-N^1-[(3-hydroxyazetidin-3-yl)methyl]-3-(2H-tetrazol-5-yl)benzene-1,2-disulfonamide]: in data set [1], the “Serratia marcescens (IMP-1) MITC95” value was determined as 1.563 µM. Moreover, the “Escherichia coli (NDM-1) MITC95” value in data set [2] stood at 1.563 µM.
Turning to `NCCNS(=O)(=O)c1ccc(-c2cccc(NC(=O)[C@H](N)CO)c2)c(-c2nn[nH]n2)c1S(N)(=O)=O` [Example 454, (R)-2-amino-N-(4′-(N-(2-aminoethyl)sulfamoyl)-3′-sulfamoyl-2′-(2H-tetrazol-5-yl)-[1,1′-biphenyl]-3-yl)-3-hydroxypropanamide], the “Serratia marcescens (IMP-1) MITC95” value in data set [1] stood at 3.125 µM. Further, in data set [2], the “Escherichia coli (NDM-1) MITC95” value is 1.563 µM.
For `C[N+]1(CCN)CC[C@H](NS(=O)(=O)c2ccc(-c3cccc4[nH]c(N)nc34)c(-c3nn[nH]n3)c2S(N)(=O)=O)C1` (stereo partly drawn) [Example 249, (3S)-3-{[4-(2-amino-1H-1,3-benzodiazol-4-yl)-2-sulfamoyl-3-(2H-1,2,3,4-tetrazol-5-yl)benzene]sulfonamido}-1-(2-aminoethyl)-1-methylpyrrolidin-1-ium methaneperoxoate], the “Serratia marcescens (IMP-1) MITC95” value in data set [1] turned out to be 1.563 µM. Besides, the “Escherichia coli (NDM-1) MITC95” value in data set [2] was 0.3906 µM.
`NCc1nc2cc(-c3ccc(S(=O)(=O)NC[C@H](O)CN)c(S(N)(=O)=O)c3-c3nn[nH]n3)ccc2s1` [Example 463, (R)—N1-(3-amino-2-hydroxypropyl)-4-(2-(aminomethyl)benzo[d]thiazol-5-yl)-3-(2H-tetrazol-5-yl)benzene-1,2-disulfonamide]: in data set [1], the “Serratia marcescens (IMP-1) MITC95” value was determined as 0.7813 µM. Further, the “Escherichia coli (NDM-1) MITC95” value in data set [2] turned out to be 0.7813 µM.
With `C[N+](C)(C)CCCNS(=O)(=O)c1ccc(-c2cccc3sc(N)nc23)c(-c2nnn[nH]2)c1S(N)(=O)=O` [Example 392, 3-({[4-(2-amino-1,3-benzothiazol-4-yl)-2-sulfamoyl-3-(1H-tetrazol-5-yl)phenyl]sulfonyl}amino)-N,N,N-trimethylpropan-1-amimum trifluoroacetate], the “Serratia marcescens (IMP-1) MITC95” value in data set [1] is 3.125 µM. The “Escherichia coli (NDM-1) MITC95” value in data set [2] stood at 3.125 µM.
`NCCN1CC[C@@H](NS(=O)(=O)c2ccc(-c3ccc(N)nc3)c(-c3nn[nH]n3)c2S(N)(=O)=O)C1` [Example 500, (R)—N1-(1-(2-aminoethyl)pyrrolidin-3-yl)-4-(6-aminopyridin-3-yl)-3-(2H-tetrazol-5-yl)benzene-1,2-disulfonamide]: in data set [1] (CL5741), the “Serratia marcescens (IMP-1) MITC95” value amounted to 1.563 µM. Moreover, the “Escherichia coli (NDM-1) MITC95” value in data set [2] (CLB30016) turned out to be 1.563 µM.
For `NCC(CN)NS(=O)(=O)c1ccc(-c2cccc3[nH]nnc23)c(-c2nn[nH]n2)c1S(N)(=O)=O` [Example 403, 4-(1H-benzo [d][1,2,3]triazol-4-yl)-N^1-(1,3-diaminopropan-2-yl)-3-(2H-tetrazol-5-yl)benzene-1,2-disulfonamide], the “Serratia marcescens (IMP-1) MITC95” value in data set [1] worked out at 1.563 µM. Moreover, the “Escherichia coli (NDM-1) MITC95” value in data set [2] is 1.563 µM.
Take `C[C@@H](CCN)NS(=O)(=O)c1ccc(-c2cccc3[nH]c(N)nc23)c(-c2nn[nH]n2)c1S(N)(=O)=O` [Example 267, (S)-4-(2-amino-1H-benzo[d]imidazol-4-yl)-N1-(4-aminobutan-2-yl)-3-(2H-tetrazol-5-yl)benzene-1,2-disulfonamide]: the Efflux ratio in data set [3] amounted to 1.00. For the same compound, the “Escherichia coli (NDM-1) MITC95” value in data set [2] was 0.7813 µM.
Consider `NCc1sc(N)nc1-c1cccc(-c2ccc(S(=O)(=O)N[C@@H]3CCNC3)c(S(N)(=O)=O)c2-c2nnn[nH]2)c1` [Example 432, (R)-3′-(2-amino-5-(aminomethyl)thiazol-4-yl)-N^4-(pyrrolidin-3-yl)-2-(1H-tetrazol-5-yl)-[1,1′-biphenyl]-3,4-disulfonamide], for which, in data set [1], the “Serratia marcescens (IMP-1) MITC95” value amounted to 0.7813 µM. Further, the “Escherichia coli (NDM-1) MITC95” value in data set [2] came to 0.7813 µM.
Take `CNc1nc2c(-c3ccc(S(=O)(=O)NCCN)c(S(N)(=O)=O)c3-c3nn[nH]n3)cccc2[nH]1` [Example 467, N1-(2-aminoethyl)-4-(2-(methylamino)-1H-benzo[d]imidazol-4-yl)-3-(2H-tetrazol-5-yl)benzene-1,2-disulfonamide]: the “Serratia marcescens (IMP-1) MITC95” value in data set [1] worked out at 0.7813 µM. Further, the “Escherichia coli (NDM-1) MITC95” value in data set [2] was determined as 0.7813 µM.
For the compound `NCCN1CC[C@H](NS(=O)(=O)c2ccc(-c3cccc4[nH]c(N)nc34)c(-c3nn[nH]n3)c2S(N)(=O)=O)C1` [Example 268, (S)-4-(2-amino-1H-benzo[d]imidazol-4-yl)-N1-(1-(2-aminoethyl)pyrrolidin-3-yl)-3-(2H-tetrazol-5-yl)benzene-1,2-disulfonamide], the Efflux ratio in data set [3] was 1.00. Also, in data set [2], the “Escherichia coli (NDM-1) MITC95” value is 0.7813 µM.
The corresponding values for `Nc1nc2c(-c3ccc(S(=O)(=O)NC[C@@]4(N)CCNC4)c(S(N)(=O)=O)c3-c3nn[nH]n3)cccc2s1` [Example 367, (R)-4-(2-aminobenzo[d]thiazol-4-yl)-N1-((3-aminopyrrolidin-3-yl)methyl)-3-(2H-tetrazol-5-yl)benzene-1,2-disulfonamide] are 0.50 and 1.563 µM.
Turning to `NCCNS(=O)(=O)c1ccc(-c2cccc3ncccc23)c(-c2nn[nH]n2)c1S(N)(=O)=O` [Example 360, N1-(2-aminoethyl)-4-(quinolin-5-yl)-3-(2H-tetrazol-5-yl)benzene-1,2-disulfonamide], the “Serratia marcescens (IMP-1) MITC95” value in data set [1] amounted to 1.563 µM. Further, the “Escherichia coli (NDM-1) MITC95” value in data set [2] was 1.563 µM.
For `NS(=O)(=O)c1c(S(=O)(=O)N[C@@H]2CCNC2)ccc(-c2cccc(Nc3nc(CO)cs3)c2)c1-c1nn[nH]n1` [Example 470, (R)-3′-((4-(hydroxymethyl)thiazol-2-yl)amino)-N4-(pyrrolidin-3-yl)-2-(2H-tetrazol-5-yl)-[1,1′-biphenyl]-3,4-disulfonamide], the “Serratia marcescens (IMP-1) MITC95” value in data set [1] turned out to be 1.563 µM. Also, the “Escherichia coli (NDM-1) MITC95” value in data set [2] was determined as 0.7813 µM.
The corresponding values for `NCc1nc2c(-c3ccc(S(=O)(=O)NC[C@@H]4CNCCN4)c(S(N)(=O)=O)c3-c3nn[nH]n3)cccc2[nH]1` [Example 311, (S)-4-(2-(aminomethyl)-1H-benzo[d]imidazol-4-yl)-N-(piperazin-2-ylmethyl)-3-(2H-tetrazol-5-yl)benzene-1,2-disulfonamide] are 1.563 µM and 1.563 µM.
Turning to `Nc1cccc(-c2ccc(S(=O)(=O)N[C@@H]3CCNC3)c(S(N)(=O)=O)c2-c2nn[nH]n2)n1` [Example 277, (R)-4-(6-aminopyridin-2-yl)-N1-(pyrrolidin-3-yl)-3-(2H-tetrazol-5-yl)benzene-1,2-disulfonamide], in data set [3], the Efflux ratio is on record as 1.00. Besides, the “Escherichia coli (NDM-1) MITC95” value in data set [2] came to 0.7813 µM.
With `CC[C@@H](CN)NS(=O)(=O)c1ccc(-c2cccc3[nH]c(N)nc23)c(-c2nn[nH]n2)c1S(N)(=O)=O` [Example 264, (S)-4-(2-amino-1H-benzo[d]imidazol-4-yl)-N1-(1-aminobutan-2-yl)-3-(2H-tetrazol-5-yl)benzene-1,2-disulfonamide], in data set [3], the Efflux ratio is reported as 4.00. In addition, in data set [2], the “Escherichia coli (NDM-1) MITC95” value stood at 0.7813 µM.
On to `NCc1nc2c(-c3ccc(S(=O)(=O)NC[C@H](O)CN)c(S(N)(=O)=O)c3-c3nn[nH]n3)cccc2[nH]1` [Example 299, (R)—N1-(3-amino-2-hydroxypropyl)-4-(2-(aminomethyl)-1H-benzo[d]imidazol-4-yl)-3-(2H-tetrazol-5-yl)benzene-1,2-disulfonamide], for which the Efflux ratio in data set [3] is 1.00. The “Escherichia coli (NDM-1) MITC95” value in data set [2] was 0.7813 µM.
For the compound `Nc1nc2c(-c3ccc(S(=O)(=O)NC4CCNCC4)c(S(N)(=O)=O)c3-c3nn[nH]n3)cccc2[nH]1` [Example 260, 4-(2-amino-1H-benzo[d]imidazol-4-yl)-N1-(piperidin-4-yl)-3-(1H-tetrazol-5-yl)benzene-1,2-disuffonamide], in data set [3], the Efflux ratio is given as 1.00. In data set [2], the “Escherichia coli (NDM-1) MITC95” value stood at 0.7813 µM.
The corresponding values for `NCC(=O)NC1CCC[C@@H](c2ccc(S(=O)(=O)N[C@@H]3CCNC3)c(S(N)(=O)=O)c2-c2nn[nH]n2)C1` (stereo partly drawn) [Example 270, 2-Amino-N-((3R)-3-(4-(N—((R)-pyrrolidin-3-yl)sulfamoyl)-3-sulfamoyl-2-(2H-tetrazol-5-yl)phenyl)cyclohexyl)acetamide] are 1.00 and 1.563 µM.
As for `NC(=O)c1nc2c(-c3ccc(S(=O)(=O)N[C@H]4CCNC4)c(S(N)(=O)=O)c3-c3nn[nH]n3)cccc2[nH]1` [Example 292, (S)-4-(4-(N-(pyrrolidin-3-yl)sulfamoyl)-3-sulfamoyl-2-(2H-tetrazol-5-yl)phenyl)-1H-benzo[d]imidazole-2-carboxamide], the Efflux ratio in data set [3] came out at 0.50. In addition, the “Escherichia coli (NDM-1) MITC95” value in data set [2] was 1.563 µM.
The corresponding values for `NCc1nc2cc(-c3ccc(S(=O)(=O)N[C@@H]4CCNC4)c(S(N)(=O)=O)c3-c3nn[nH]n3)ccc2[nH]1` [Example 274, (R)-4-(2-(aminomethyl)-1H-benzo[d]imidazol-5-yl)-N1-(pyrrolidin-3-yl)-3-(2H-tetrazol-5-yl)benzene-1,2-disulfonamide] are 1.00 and 0.7813 µM.
